# Several values for one entry are separate records, joined by “and”; a condition that tells them apart may be missing. Equal entries are not always repeated. Toxic doses and inconclusive results are not listed.
# Tested on: L1210 leukemia ip in BDF1 mice, survival T/C
# Experiment: NCI In Vivo Anticancer Drug Screen. Data for tumor model L1210 Leukemia (intraperitoneal) in B6D2F1 (BDF1) mice
# Conditions: endpoint: mean survival time, higher = longer survival
# How it was run: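 Transplantable tumor model; survival measured in treated vs vehicle control mice. Value = treated/control.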
# [1] = dose: 100.0 mg/kg/injection, schedule: Q04DX003 (ip), vehicle: saline with Tween-80
# [2] = dose: 200.0 mg/kg/injection, schedule: Q04DX003 (ip), vehicle: saline with Tween-80
# [3] = dose: 400.0 mg/kg/injection, schedule: Q04DX003 (ip), vehicle: saline with Tween-80
# [4] = dose: 75.0 mg/kg/injection, schedule: Q01DX001 (ip), vehicle: saline
# [5] = dose: 150.0 mg/kg/injection, schedule: Q01DX001 (ip), vehicle: saline
# [6] = dose: 300.0 mg/kg/injection, schedule: Q01DX001 (ip), vehicle: saline
# [7] = dose: 50.0 mg/kg/injection, schedule: Q04DX003 (ip), vehicle: saline with Tween-80
# [8] = dose: 100.0 mg/kg/injection, schedule: Q01DX009 (ip), vehicle: Klucel (hydroxypropylcellulose) (HPC)
# [9] = dose: 200.0 mg/kg/injection, schedule: Q01DX009 (ip), vehicle: Klucel (hydroxypropylcellulose) (HPC)
# [10] = dose: 100.0 mg/kg/injection, schedule: Q01DX001 (ip), vehicle: saline
# [11] = dose: 200.0 mg/kg/injection, schedule: Q01DX001 (ip), vehicle: saline
# [12] = dose: 100.0 mg/kg/injection, schedule: Q04DX002 (ip), vehicle: Klucel (hydroxypropylcellulose) (HPC)
# [13] = dose: 200.0 mg/kg/injection, schedule: Q04DX002 (ip), vehicle: Klucel (hydroxypropylcellulose) (HPC)
# [14] = dose: 400.0 mg/kg/injection, schedule: Q04DX002 (ip), vehicle: Klucel (hydroxypropylcellulose) (HPC)
# [15] = dose: 100.0 mg/kg/injection, schedule: Q04DX003 (ip), vehicle: Klucel (hydroxypropylcellulose) (HPC)
# [16] = dose: 200.0 mg/kg/injection, schedule: Q04DX003 (ip), vehicle: Klucel (hydroxypropylcellulose) (HPC)
# [17] = dose: 400.0 mg/kg/injection, schedule: Q04DX003 (ip), vehicle: Klucel (hydroxypropylcellulose) (HPC)
structure (smiles),measurement,setting,value
COC1=C(N2CC2)C(=O)C(OC)=C(N2CC2)C1=O,T/C,"dose: 0.5 mg/kg/injection, schedule: Q01DX009 (ip), vehicle: carboxymethylcellulose (CMC)",114 % of control
same,T/C,"dose: 1.0 mg/kg/injection, schedule: Q01DX009 (ip), vehicle: carboxymethylcellulose (CMC)",124 % of control
same,T/C,"dose: 3.0 mg/kg/injection, schedule: Q01DX009 (ip), vehicle: carboxymethylcellulose (CMC)",121 % of control
c1ccc2nc(C3CO3)cnc2c1 (configuration not stated),T/C,[1],100 % of control
same,T/C,[2],91 % of control
same,T/C,[3],99 % of control
CC1(C)N=C(N)N=C(N)N1c1ccc(CCCCc2ccc(Cl)cc2Cl)cc1,T/C,"dose: 5.0 mg/kg/injection, schedule: Q01DX001 (ip), vehicle: saline",88 % of control
same,T/C,"dose: 10.0 mg/kg/injection, schedule: Q01DX001 (ip), vehicle: saline",92 % of control
same,T/C,"dose: 20.0 mg/kg/injection, schedule: Q01DX001 (ip), vehicle: saline",103 % of control
CCC(C)C(=Nc1ccc(Cl)c(Cl)c1)N(C)C (configuration not stated),T/C,"dose: 55.0 mg/kg/injection, schedule: Q01DX Z (ip), vehicle: methylcellulose (MC)",102 % of control
same,T/C,"dose: 83.0 mg/kg/injection, schedule: Q01DX Z (ip), vehicle: methylcellulose (MC)",96 % of control
same,T/C,"dose: 125.0 mg/kg/injection, schedule: Q01DX Z (ip), vehicle: methylcellulose (MC)",104 % of control
CC(=O)C(Br)CC(C)C (configuration not stated),T/C,[4],102 % of control
same,T/C,[5],105 % of control
same,T/C,[6],100 % of control
CC(=O)NC1C(OC(C)=O)OC(COC(c2ccccc2)(c2ccccc2)c2ccccc2)C(OS(C)(=O)=O)C1OC(C)=O (configuration not stated),T/C,[7],109 % of control
same,T/C,[1],109 % of control and 91 % of control
same,T/C,[2],121 % of control
same,T/C,[3],88 % of control
CC(C)=CCSc1ncnc2nc[nH]c12,T/C,"dose: 31.0 mg/kg/injection, schedule: Q01DX Z (ip), vehicle: other",91 % of control
same,T/C,"dose: 62.0 mg/kg/injection, schedule: Q01DX Z (ip), vehicle: other",117 % of control
same,T/C,"dose: 125.0 mg/kg/injection, schedule: Q01DX Z (ip), vehicle: other",103 % of control
same,T/C,"dose: 250.0 mg/kg/injection, schedule: Q01DX Z (ip), vehicle: other",109 % of control
O=c1[nH]c2nc3ccccc3nc2c(=O)n1O,T/C,[8],100 % of control
same,T/C,[9],105 % of control
CN(C)c1ccc(C(=C2C=CC(=[N+](C)C)C=C2)c2ccc(N(C)C)cc2)cc1,T/C,[10],97 % of control
same,T/C,[11],105 % of control
CCCC[P+](CCCC)(CCCC)C(C)C,T/C,"dose: 12.0 mg/kg/injection, schedule: Q01DX009 (ip), vehicle: saline with Tween-80",97 % of control
same,T/C,"dose: 25.0 mg/kg/injection, schedule: Q01DX009 (ip), vehicle: saline with Tween-80",97 % of control
same,T/C,"dose: 25.0 mg/kg/injection, schedule: Q04DX003 (ip), vehicle: saline with Tween-80",101 % of control
same,T/C,[7],99 % of control
c1ccc(N=C(c2ccccc2)c2ccccc2)cc1,T/C,"dose: 50.0 mg/kg/injection, schedule: Q01DX001 (ip), vehicle: saline",102 % of control
same,T/C,[10],98 % of control
same,T/C,[11],98 % of control
same,T/C,"dose: 400.0 mg/kg/injection, schedule: Q01DX001 (ip), vehicle: saline",102 % of control
CC(=O)C(C(c1ccccc1)N1CCOCC1)N1CCOCC1 (configuration not stated),T/C,[12],100 % of control
same,T/C,[1],97 % of control
same,T/C,[13],110 % of control
same,T/C,[2],96 % of control
same,T/C,[14],100 % of control
same,T/C,[3],93 % of control
O=C(CCCCCC(=O)NO)NO,T/C,"dose: 100.0 mg/kg/injection, schedule: Q04DX002 (ip), vehicle: saline with Tween-80",93 % of control
same,T/C,"dose: 100.0 mg/kg/injection, schedule: Q04DX002 (ip), vehicle: saline",100 % of control
same,T/C,"dose: 200.0 mg/kg/injection, schedule: Q04DX002 (ip), vehicle: saline with Tween-80",97 % of control
same,T/C,"dose: 200.0 mg/kg/injection, schedule: Q04DX002 (ip), vehicle: saline",93 % of control
same,T/C,"dose: 400.0 mg/kg/injection, schedule: Q04DX002 (ip), vehicle: saline with Tween-80",97 % of control
same,T/C,"dose: 400.0 mg/kg/injection, schedule: Q04DX002 (ip), vehicle: saline",93 % of control
CCC(=O)OCC1OC(n2cnc3c(=S)nc(N)[nH]c32)C(OC(=O)CC)C1OC(=O)CC (configuration not stated),T/C,"dose: 0.8 mg/kg/injection, schedule: Q01DX Z (ip), vehicle: carboxymethylcellulose (CMC)",106 % of control
same,T/C,"dose: 1.3 mg/kg/injection, schedule: Q01DX Z (ip), vehicle: carboxymethylcellulose (CMC)",110 % of control
same,T/C,"dose: 2.0 mg/kg/injection, schedule: Q01DX Z (ip), vehicle: carboxymethylcellulose (CMC)",120 % of control
same,T/C,"dose: 8.0 mg/kg/injection, schedule: Q01DX Z (ip), vehicle: carboxymethylcellulose (CMC)",169 % of control
same,T/C,"dose: 12.0 mg/kg/injection, schedule: Q01DX Z (ip), vehicle: carboxymethylcellulose (CMC)",151 % of control and 154 % of control
same,T/C,"dose: 18.0 mg/kg/injection, schedule: Q01DX Z (ip), vehicle: carboxymethylcellulose (CMC)",101 % of control
same,T/C,"dose: 27.0 mg/kg/injection, schedule: Q01DX Z (ip), vehicle: carboxymethylcellulose (CMC)",156 % of control
same,T/C,"dose: 40.0 mg/kg/injection, schedule: Q01DX Z (ip), vehicle: carboxymethylcellulose (CMC)",151 % of control
O=C(NC(CSC(=O)c1ccccc1)C(=O)O)OCc1ccccc1 (configuration not stated),T/C,[8],104 % of control
same,T/C,[15],101 % of control
same,T/C,[9],93 % of control
same,T/C,[16],95 % of control
same,T/C,[17],95 % of control
CCCC(CCC)=NCCCO,T/C,"dose: 75.0 mg/kg/injection, schedule: Q01DX001 (ip), vehicle: carboxymethylcellulose (CMC)",96 % of control
same,T/C,"dose: 150.0 mg/kg/injection, schedule: Q01DX001 (ip), vehicle: carboxymethylcellulose (CMC)",102 % of control
C/C(=C\COc1ccc2ccc(=O)oc2c1)C1=CC(=O)C(C)(C)O1,T/C,"dose: 100.0 mg/kg/injection, schedule: Q01DX009 (ip), vehicle: saline with Tween-80",96 % of control
same,T/C,[1],96 % of control
same,T/C,"dose: 200.0 mg/kg/injection, schedule: Q01DX009 (ip), vehicle: saline with Tween-80",94 % of control
same,T/C,[2],91 % of control
same,T/C,"dose: 400.0 mg/kg/injection, schedule: Q01DX009 (ip), vehicle: saline with Tween-80",97 % of control
same,T/C,[3],94 % of control
CCC1=C(c2ccccc2)OS(=O)(=O)NC1=O,T/C,"dose: 100.0 mg/kg/injection, schedule: Q04DX003 (ip), vehicle: saline",97 % of control
same,T/C,"dose: 200.0 mg/kg/injection, schedule: Q04DX003 (ip), vehicle: saline",97 % of control
same,T/C,"dose: 400.0 mg/kg/injection, schedule: Q04DX003 (ip), vehicle: saline",109 % of control
CCOC(=O)c1cc(C(=O)OCC)c(C)nc1C,T/C,[4],96 % of control
same,T/C,"dose: 75.0 mg/kg/injection, schedule: Q01DX009 (ip), vehicle: saline",94 % of control
same,T/C,[15],96 % of control
same,T/C,[5],98 % of control
same,T/C,"dose: 150.0 mg/kg/injection, schedule: Q01DX009 (ip), vehicle: saline",94 % of control
same,T/C,[16],93 % of control
same,T/C,[6],100 % of control
same,T/C,"dose: 300.0 mg/kg/injection, schedule: Q01DX009 (ip), vehicle: saline",91 % of control
same,T/C,[17],93 % of control
Nc1ncnc(N)c1NC(=O)c1ccc(C(=O)c2ccccc2)cc1,T/C,[15],100 % of control
same,T/C,[16],94 % of control
same,T/C,[17],94 % of control
Cc1cnc(NC#N)nc1-c1ccccc1O,T/C,[12],95 % of control
same,T/C,[13],98 % of control
same,T/C,[14],95 % of control
C=CC(=O)NC(=O)/C=C/c1cccnc1,T/C,[12],117 % of control
same,T/C,[13],106 % of control
same,T/C,[14],120 % of control
O=C(O)c1ccc(NC(C[N+](=O)[O-])C(F)(F)C(F)(F)C(F)(F)F)cc1 (configuration not stated),T/C,"dose: 25.0 mg/kg/injection, schedule: Q04DX003 (ip), vehicle: Klucel (hydroxypropylcellulose) (HPC)",103 % of control
same,T/C,"dose: 50.0 mg/kg/injection, schedule: Q04DX003 (ip), vehicle: Klucel (hydroxypropylcellulose) (HPC)",93 % of control
same,T/C,"dose: 100.0 mg/kg/injection, schedule: Q01DX009 (ip), vehicle: saline sonified",95 % of control
same,T/C,[15],103 % of control and 115 % of control
same,T/C,"dose: 200.0 mg/kg/injection, schedule: Q01DX009 (ip), vehicle: saline sonified",86 % of control
same,T/C,[16],102 % of control
same,T/C,"dose: 400.0 mg/kg/injection, schedule: Q01DX009 (ip), vehicle: saline sonified",88 % of control
same,T/C,[17],100 % of control

# From PubChem BioAssay AID248 (DTP/NCI, 2004)
